According to US11214578B2, “Urea/carbamates FAAH MAGL or dual FAAH/MAGL inhibitors and uses thereof” (Northeastern University, priority 2014, dated 2022):

How the values were obtained:
Type in all cases: biochemical
ΔTM rat FAAH = molecular target: T1, ΔTM rat FAAH (Rattus norvegicus, UniProt P97612); experiment: Fluorescent assay protocol for ΔTM rat FAAH (AAMCA substrate); details: 15 min preincubation, read-out: IC50 rFAAH
T1 construct: Preparation of Transmembrane Domain-Deleted Rat FAAH (ΔTM rFAAH); made in house; host or cells: E. coli
T1 sequence (P97612 30-579 limits assumed): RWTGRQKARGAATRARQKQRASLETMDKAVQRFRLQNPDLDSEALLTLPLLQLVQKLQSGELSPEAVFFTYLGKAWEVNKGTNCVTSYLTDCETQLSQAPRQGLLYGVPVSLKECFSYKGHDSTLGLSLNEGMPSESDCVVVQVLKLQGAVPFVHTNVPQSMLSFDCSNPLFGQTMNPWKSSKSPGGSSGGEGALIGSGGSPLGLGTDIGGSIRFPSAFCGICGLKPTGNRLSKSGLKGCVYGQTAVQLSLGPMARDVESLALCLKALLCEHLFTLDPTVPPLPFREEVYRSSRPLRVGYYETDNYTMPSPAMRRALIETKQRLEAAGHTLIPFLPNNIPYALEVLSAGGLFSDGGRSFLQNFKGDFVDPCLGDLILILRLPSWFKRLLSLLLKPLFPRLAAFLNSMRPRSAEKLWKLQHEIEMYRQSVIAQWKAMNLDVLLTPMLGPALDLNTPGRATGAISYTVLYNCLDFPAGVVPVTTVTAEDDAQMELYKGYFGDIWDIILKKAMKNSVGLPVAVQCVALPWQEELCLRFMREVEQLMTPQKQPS
Method: Procedure was followed as described for hMAGL, except that arachidonoyl-methyl coumarin amide (AAMCA) was used as fluorigenic substrate. […] For the screening assay, 3 concentrations (1 μM, 10 μM, and 100 μM) of test compounds, 15 μg of ΔTM rFAAH and assay buffer were pre-incubated for 15 min at 25° C. […] The fluorescence reading at the 3 hour time point (linear enzyme kinetics) was used to calculate percent inhibition based on control assays without inhibitor present. All FAAH assays were performed in triplicate for each inhibitor concentration, and IC50 values determined using Prizm software (GraphPad Software, Inc.).

Human FAAH (MBPΔTMhFAAH) = molecular target: T2, Human FAAH (MBPΔTMhFAAH) (Homo sapiens, UniProt O00519); experiment: Fluorescent assay protocol for hFAAH; details: human FAAH (MBP fusion, ΔTM), procedure as for rFAAH
T2 construct: made in house; host or cells: E. coli (pMALcE4 vector)
T2 sequence (O00519 30-579 limits assumed): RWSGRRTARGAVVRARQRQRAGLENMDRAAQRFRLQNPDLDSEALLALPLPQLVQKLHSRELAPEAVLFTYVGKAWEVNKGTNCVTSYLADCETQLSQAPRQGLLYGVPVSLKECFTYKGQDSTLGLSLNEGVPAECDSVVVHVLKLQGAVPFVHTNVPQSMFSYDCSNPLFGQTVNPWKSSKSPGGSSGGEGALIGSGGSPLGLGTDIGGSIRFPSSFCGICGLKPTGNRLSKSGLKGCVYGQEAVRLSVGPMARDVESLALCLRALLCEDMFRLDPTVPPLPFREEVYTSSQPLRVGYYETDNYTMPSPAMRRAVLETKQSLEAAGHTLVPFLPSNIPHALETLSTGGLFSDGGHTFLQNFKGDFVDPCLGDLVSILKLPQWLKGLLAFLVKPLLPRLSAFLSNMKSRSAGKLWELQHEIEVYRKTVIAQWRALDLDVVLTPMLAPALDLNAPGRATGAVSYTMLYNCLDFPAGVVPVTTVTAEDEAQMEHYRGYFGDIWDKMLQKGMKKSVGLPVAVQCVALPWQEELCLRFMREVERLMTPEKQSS
Method: Human FAAH without putative transmembrane domain following maltose binding protein was expressed in E. coli cells using pMALcE4 vector Alapafuja et al J. Med. Chem. (2012) 55: 10074-89.
Procedure was followed as described for hMAGL, except that arachidonoyl-methyl coumarin amide (AAMCA) was used as fluorigenic substrate. Compounds were diluted in 50:50 DMSO/assay buffer (50 mM HEPES, 1 mM EDTA, 0.1% BSA, pH 7.4) so as to have a final DMSO concentration below 8% in each reaction. For the screening assay, 3 concentrations (1 μM, 10 μM, and 100 μM) of test compounds, 15 μg of ΔTM rFAAH and assay buffer were pre-incubated for 15 min at 25° C. AAMCA (20 μM, 2×Km) was added prior to incubation at 25° C. and kinetic fluorescence reading every 20 minutes (λex=360/λem=460) for 4 hours on a BioTek Synergy HT Microplate Reader (BioTek Instruments, Winooski, Vt.). The fluorescence reading at the 3 hour time point (linear enzyme kinetics) was used to calculate percent inhibition based on control assays without inhibitor present. All FAAH assays were performed in triplicate for each inhibitor concentration, and IC50 values determined using Prizm software (GraphPad Software, Inc.).
Procedure was followed as described for rFAAH.

Rat MAGL (rMAGL) = molecular target: T3, Rat MAGL (rMAGL) (Rattus norvegicus, UniProt Q8R431); experiment: Fluorescent assay protocol for rMAGL; details: recombinant rat MAGL, procedure as for hMAGL; read-out: IC50 rMAGL
T3 construct: made in house; host or cells: E. coli
T3 sequence (Q8R431 1-303): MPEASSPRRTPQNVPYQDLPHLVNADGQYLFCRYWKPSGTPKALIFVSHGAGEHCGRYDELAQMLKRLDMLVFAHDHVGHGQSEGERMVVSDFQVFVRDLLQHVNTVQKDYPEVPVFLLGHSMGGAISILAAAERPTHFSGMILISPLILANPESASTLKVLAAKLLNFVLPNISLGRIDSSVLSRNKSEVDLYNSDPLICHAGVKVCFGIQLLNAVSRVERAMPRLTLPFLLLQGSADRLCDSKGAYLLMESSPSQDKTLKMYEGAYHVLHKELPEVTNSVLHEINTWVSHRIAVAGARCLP
Method: (§1) This medium throughput assay involved a 96-well plate format in which hMAGL activity was monitored by the hydrolysis of the substrate 7-hydroxy-6-methoxy-4-methylcoumarin ester (AHMMCE) to form the fluorescent product, coumarin. […] Upon the addition of AHMMCE, the reaction was incubated at 25° C. for 120 min; fluorescence readings were taken every 15 min at 360 nm/460 nm (λexcitation/λemission) using a Synergy HT Plate Reader (Bio-Tek, Winooski, Vt.). […] External standards were used to convert relative fluorescence units to the amount of 4-methylcoumarin formed. All MAGL assays were performed in triplicate for each inhibitor concentration, and IC50 values were calculated using Prizm software (GraphPad Software, Inc., San Diego, Calif.).
Procedure was followed as described for hMAGL.

Human MAGL (hMAGL) = molecular target: T4, Human MAGL (hMAGL) (Homo sapiens, UniProt Q99685); experiment: Fluorescent assay protocol for hMAGL (AHMMCE substrate); details: recombinant human MAGL, AHMMCE substrate, 15 min preincubation; read-out: IC50 hMAGL
T4 construct: hexahistidine; made in house; host or cells: E. coli
T4 sequence (Q99685 1-303): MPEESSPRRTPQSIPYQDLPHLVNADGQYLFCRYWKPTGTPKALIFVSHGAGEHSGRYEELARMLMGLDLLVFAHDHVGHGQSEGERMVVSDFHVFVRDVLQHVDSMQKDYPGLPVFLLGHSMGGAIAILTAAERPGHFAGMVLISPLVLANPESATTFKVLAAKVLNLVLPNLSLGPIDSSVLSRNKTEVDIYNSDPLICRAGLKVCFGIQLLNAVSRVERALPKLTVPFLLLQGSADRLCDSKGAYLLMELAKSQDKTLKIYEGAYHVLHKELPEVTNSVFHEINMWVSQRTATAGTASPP
Method: as §1

SMILES | IC50 (ΔTM rat FAAH) [nM] | IC50 (Human FAAH (MBPΔTMhFAAH)) [nM] | IC50 (Rat MAGL (rMAGL)) [nM] | IC50 (Human MAGL (hMAGL)) [nM]
O=C(N1CCN(C(c2ccc(F)cc2)c2ccc(F)cc2)CC1)n1cnc(-c2ccccc2)c1 [Example 29, (4-(bis(4-fluorophenyl)methyl)piperazin-1-yl)(4-phenyl-1H-imidazol-1-yl)methanone] | 110 to 1000 | 110 to 1000 | > 1000 | > 1000
O=C(N1CCN(C(c2ccccc2)c2ccccc2)CC1)n1cnc(-c2ccccc2)c1 [Example 30, (4-benzhydrylpiperazin-1-yl)(4-phenyl-1H-imidazol-1-yl)methanone] | > 1000 | 110 to 1000 | > 1000 | > 1000
O=C(N1CCN(C(c2ccccc2)c2ccccc2)CC1)n1nnnc1Cc1ccccc1 [Example 31, (4-benzhydrylpiperazin-1-yl)(5-benzyl-1H-tetrazol-1-yl)methanone] | 10 to 100 | 10 to 100 | > 1000 | > 1000
O=C(N1CCN(C(c2ccc(F)cc2)c2ccc(F)cc2)CC1)n1nnnc1Cc1ccccc1 [Example 32, (5-benzyl-1H-tetrazol-1-yl)(4-(bis(4-fluorophenyl)methyl)piperazin-1-yl)methanone] | 110 to 1000 | 110 to 1000 | > 1000 | > 1000
COC(=O)c1ncn(C(=O)N2CCC(OC(c3ccc(F)cc3)c3ccc(F)cc3)CC2)n1 [Example 33, (3-(Carbomethoxy)-1H-1,2,4-triazol-1-yl)(4-(bis(4-fluorophenyl)methyoxy)pipe-ridin-1 yl)methanone] | > 1000 | > 1000 | > 1000 | > 1000
O=C1CC2(CCC(C(=O)n3cnc(Br)c3)CC2)Oc2ccccc21 (centres unmarked) [Example 34, 4′-(4-bromo-1H-imidazole-1-carbonyl)spiro[chromane-2,1′-cyclohexan]-4-one] | 10 to 100 | 10 to 100 | > 1000 | > 1000
CC(c1ccccc1)N1CCN(C(=O)Oc2cccc(C#N)c2)CC1 (centres unmarked) [Example 36, 3-cyanophenyl 4-(1-phenylethyl)piperazine-1-carboxylate] | 10 to 100 | 10 to 100 | > 1000 | > 1000
N#Cc1cc(O)cc(OC(=O)N2CCN(C(c3ccccc3)c3ccccc3)CC2)c1 [Example 38, 3-cyano-5-hydroxyphenyl 4-benzhydrylpiperazine-1-carboxylate] | 110 to 1000 | 110 to 1000 | > 1000 | > 1000
O=C(Oc1cccc(Cl)n1)N1CCN(C(c2ccccc2)c2ccccc2)CC1 [Example 39, 6-chloropyridin-2-yl 4-benzhydrylpiperazine-1-carboxylate] | 110 to 1000 | 110 to 1000 | > 1000 | > 1000
N#Cc1ccnc(OC(=O)N2CCN(C3c4ccccc4-c4ccccc43)CC2)c1 [Example 42, 4-cyanopyridin-2-yl 4-(9H-fluoren-9-yl)piperazine-1-carboxylate] | > 1000 | > 1000 | 10 to 100 | 10 to 100
N#Cc1cccnc1OC(=O)N1CCN(C2c3ccccc3-c3ccccc32)CC1 [Example 43, 3-cyanopyridin-2-yl 4-(9H-fluoren-9-yl)piperazine-1-carboxylate] | > 1000 | > 1000 | 10 to 100 | 10 to 100
N#Cc1ccc(F)c(OC(=O)N2CCC(Cc3ccccc3)CC2)c1 [Example 45, 5-Cyano-2-fluorophenyl 4-benzylpiperidine-1-carboxylate] | 10 to 100 | 10 to 100 | > 1000 | > 1000
N#Cc1cccc(OC(=O)N2CCC(=C(c3ccccc3)c3ccccc3)CC2)c1 [Example 47, 3-cyanophenyl 4-(diphenylmethylene)piperidine-1-carboxylate] | 10 to 100 | 10 to 100 | > 1000 | > 1000
COC(=O)c1cccc(OC(=O)N2CCC(=C(c3ccccc3)c3ccccc3)CC2)c1 [Example 48, 3-(methoxycarbonyl)phenyl 4-(diphenylmethylene)piperidine-1-carboxylate] | 110 to 1000 | 10 to 100 | > 1000 | > 1000
N#Cc1cccc(OC(=O)N2CCC(OC(c3ccc(Cl)cc3)c3cccnc3Cl)CC2)c1 (centres unmarked) [Example 53, 3-cyanophenyl 4-((4-chlorophenyl)(2-chloropyridin-3-yl)methoxy)piperidine-1-carboxylate] | 10 to 100 | 10 to 100 | 10 to 100 | 10 to 100
O=C(Oc1cccc(Cl)n1)N1CCC(C(c2ccccc2)c2ccccc2)CC1 [Example 54, 6-Chloropyridin-2-yl 4-(benzhydryl)piperidine-1-carboxylate] | 110 to 1000 | 10 to 100 | 110 to 1000 | 110 to 1000
COC(=O)c1cccc(OC(=O)N2CCC(OC(c3ccccc3)c3ccccc3)CC2)c1 [Example 55, 3-(methoxycarbonyl)phenyl 4-(benzhydryloxy)piperidine-1-carboxylate] | 10 to 100 | 10 to 100 | 110 to 1000 | 10 to 100
